Experiments:
pigweed = assay: Test A pre-/postemergence herbicide test; assay type: in vivo, Amaranthus retroflexus; conditions: for Pigweed plant response rating: visual rating on 0 to 100 scale (0 no effect, 100 complete control)
Outline: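 Planted in loam–sand blend; treated the same day preemergence by directed soil spray, while separately grown plants at one- to two-leaf stage got postemergence spray. Compared visually with untreated controls after approximately 10 days; 100 means complete control.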

rice = assay: Test C flooded paddy test; assay type: in vivo, Oryza sativa; conditions: Flood
Outline: (§1)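 Ratings reflect visual comparison with controls on a 0–100 scale, where 100 is complete control. Compound is dosed into standing paddy water 3 cm deep over 2-leaf-stage plants, kept in the greenhouse 13 to 15 days.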

barnyardgrass = assay: Test C flooded paddy test; assay type: in vivo, Echinochloa crus-galli; conditions: Flood
Outline: as §1

foxtail, giant = assay: Test C pre-/postemergence herbicide test; assay type: in vivo, Setaria faberii; conditions: Preemergence; for Plant response rating (scale of 0 to 100), Foxtail, Giant: 250 g ai/ha
Text: Seeds of plant species selected from blackgrass (Alopecurus myosuroides), ryegrass, Italian (Italian ryegrass, Lolium multiflorum), wheat (winter wheat, Triticum aestivum), galium (catchweed bedstraw, Galium aparine), corn (Zea mays), crabgrass, large (large crabgrass, Digitaria sanguinalis), foxtail, giant (giant foxtail, Setaria faberii), johnsongrass (Sorghum halepense), lambsquarters (Chenopodium album), morningglory (Ipomoea coccinea), nutsedge, yellow (yellow nutsedge, Cyperus esculentus), pigweed (Amaranthus retroflexus), ragweed (common ragweed, Ambrosia elatior), soybean (Glycine max), barnyardgrass (Echinochloa crus-galli), oilseed rape (Brassica napus), waterhemp (common waterhemp, Amaranthus rudis), kochia (Kochia scoparia), oat, wild (wild oat, Avena fatua), surinam grass (Brachiaria decumbens), foxtail, green (green foxtail, Setaria viridis), goosegrass (Eleusine indica), bromegrass, downy (downy bromegrass, Bromus tectorum), nightshade (eastern black nightshade, Solanum ptycanthum), cocklebur (common cocklebur, Xanthium strumarium), cupgrass, woolly (woolly cupgrass, Eriochloa villosa), bermudagrass (Cynodon dactylon), sunflower, (common oilseed sunflower, Helianthus annuus), Russian thistle (Salsola kali) and velvetleaf (Abutilon theophrasti) were planted into a blend of loam soil and sand and treated preemergence with test chemicals formulated in a non-phytotoxic solvent mixture which included a surfactant. At the same time, plants selected from these crop and weed species and also barley (winter barley, Hordeum vulgare), […]), chickweed (common chickweed, Stellaria media), deadnettle (henbit deadnettle, Lamium amplexicaule), and canarygrass (littleseed canarygrass, Phalaris minor) were planted in pots containing Redi-Earth® planting medium (Scotts Company, 14111 Scottslawn Road, Marysville, Ohio 43041) comprising spaghnum peat moss, vermiculite, wetting agent and starter nutrients and treated with postemergence applications of test chemicals formulated in the same manner. Plants ranged in height from 2 to 18 cm (1- to 4-leaf stage) for postemergence treatments. Treated plants and controls were maintained in a greenhouse for 13 to 15 days, after which time all species were compared to controls and visually evaluated. Plant response ratings, summarized in Table C, are based on a scale of 0 to 100 where 0 is no effect and 100 is complete control. A dash (-) response means no test result.

galium = assay: Test C pre-/postemergence herbicide test; assay type: in vivo, Galium aparine; conditions: Preemergence; for Plant response rating (scale of 0 to 100), Galium: 250 g ai/ha
Outline: (§2)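 Test compounds, formulated in a surfactant-containing non-phytotoxic solvent blend, are applied to seeded loam/sand soil (preemergence) and to young plants at the 1- to 4-leaf stage in peat-based medium (postemergence). Plants stay 13 to 15 days under greenhouse conditions, then are scored visually relative to controls, 0 = no effect, 100 = complete control.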

morningglory = assay: Test C pre-/postemergence herbicide test; assay type: in vivo, Ipomoea coccinea; conditions: Preemergence; for Plant response rating (scale of 0 to 100), Morningglory: 250 g ai/ha
Outline: as §2

[1] = Postemergence, 500 g ai/ha, 0 to 100 scale (0 no effect, 100 complete control)
[2] = preemergence, 500 g ai/ha, 0 to 100 scale
[3] = 31 g ai/ha, scale of 0 to 100 where 0 is no effect and 100 is complete control, 13 to 15 days
[4] = 62 g ai/ha, scale of 0 to 100 where 0 is no effect and 100 is complete control, 13 to 15 days
[5] = 125 g ai/ha, scale of 0 to 100 where 0 is no effect and 100 is complete control, 13 to 15 days
[6] = 31 g ai/ha, scale 0 to 100, 0 is no effect and 100 is complete control
[7] = 62 g ai/ha, scale 0 to 100 (0 no effect, 100 complete control)
[8] = 125 g ai/ha, scale 0 to 100 (0 no effect, 100 complete control)
[9] = Postemergence, 125 g ai/ha, 0 to 100 scale, 0 is no effect, 100 is complete control
[10] = preemergence, 500 g ai/ha, 0 to 100 scale, 0 is no effect and 100 is complete control
[11] = Preemergence, 125 g ai/ha, 0 to 100 scale where 0 is no effect and 100 is complete control
[12] = 250 g ai/ha, scale of 0 to 100 where 0 is no effect and 100 is complete control, 13 to 15 days

In the case of `O=C1NCC(c2cccc(C(F)(F)F)c2)C1C(=O)Nc1ccccc1F` (racemic) [Compound 3], the “Plant response rating, Pigweed” value (pigweed; [1]) is reported as 50, the “Pigweed plant response rating” value (pigweed; Preemergence, 125 g ai/ha) is reported as 0 and the “Plant response rating, Pigweed” value (pigweed; [2]) is reported as 0. For the same compound, the “Plant response rating, Rice” value (rice; [3]) was 0, the “Plant response rating, Rice” value (rice; [4]) was 0 and the “Plant response rating, Rice” value (rice; [5]) was 0. The “Plant response rating, Rice” value (rice; 250 g ai/ha, scale 0 to 100) was 0, the “Plant response rating, Barnyardgrass” value (barnyardgrass; [3]) was 0 and the “Plant response rating, Barnyardgrass” value (barnyardgrass; [4]) was 20. For the same compound, the “Plant response rating, Barnyardgrass” value (barnyardgrass; [5]) was 40 and the “Plant response rating, Barnyardgrass” value (barnyardgrass; 250 g ai/ha, scale 0 to 100) was 55.

`O=C1NCC(c2ccc(F)c(F)c2)C1C(=O)Nc1cccc(F)c1` (racemic) [Compound 12] was tested, and the “Plant response rating, Pigweed” value (pigweed; Postemergence, 125 g ai/ha, 0 to 100 scale, 0 no effect, 100 complete control) was 0, the “Plant response rating, Pigweed” value (pigweed; [1]) was 0 and the “Pigweed plant response rating” value (pigweed; Preemergence, 125 g ai/ha) was 0. For the same compound, the “Plant response rating, Pigweed” value (pigweed; [2]) was 0, the “Plant response rating, Rice” value (rice; [3]) was 0 and the “Plant response rating, Rice” value (rice; [4]) was 0. For the same compound, the “Plant response rating, Rice” value (rice; [5]) was 0, the “Plant response rating, Rice” value (rice; 250 g ai/ha, scale 0 to 100) was 0 and the “Plant response rating, Barnyardgrass” value (barnyardgrass; [3]) was 0. The “Plant response rating, Barnyardgrass” value (barnyardgrass; [4]) was 0, the “Plant response rating, Barnyardgrass” value (barnyardgrass; [5]) was 0 and the “Plant response rating, Barnyardgrass” value (barnyardgrass; 250 g ai/ha, scale 0 to 100) was 65.

With `O=C1NCC(c2cccc(C(F)(F)F)c2)C1C(=O)Nc1ccccc1Cl` (racemic) [Compound 189] the “Foxtail, Giant plant response rating” value (foxtail, giant; [6]) was 80, the “Foxtail, Giant plant response rating” value (foxtail, giant; [7]) was 90 and the “Plant response rating, Foxtail, Giant” value (foxtail, giant; [8]) was 95. The “Plant response rating, Foxtail, Giant” value (foxtail, giant; 16 g ai/ha, scale 0 to 100) was 85, the “Plant response rating, Pigweed” value (pigweed; 125 g ai/ha, visual rating, 0 to 100 scale, 0 no effect, 100 complete control, approximately 10 days, preemergence) was 0 and the “Plant response rating, Pigweed” value (pigweed; [9]) was 0. The “Pigweed plant response rating (0 to 100 scale, 0 is no effect, 100 is complete control)” value (pigweed; Postemergence, 500 g ai/ha) was 0, the “Plant response rating, Pigweed” value (pigweed; [10]) was 0 and the “Galium plant response rating” value (galium; [6]) was 0. For the same compound, the “Galium plant response rating” value (galium; [7]) was 0, the “Plant response rating, Galium” value (galium; [8]) was 80 and the “Plant response rating, Galium” value (galium; 16 g ai/ha, scale 0 to 100) was 0. For the same compound, the “Plant response rating, Rice” value (rice; [5]) was 0, the “Plant response rating, Rice” value (rice; 250 g ai/ha, scale 0 to 100) was 0 and the “Plant response rating, Rice” value (rice; 500 g ai/ha, scale 0 to 100) was 0. For the same compound, the “Plant response rating, Rice” value (rice; 1000 g ai/ha, scale 0 to 100) was 0, the “Plant response rating, Barnyardgrass” value (barnyardgrass; [5]) was 10 and the “Plant response rating, Barnyardgrass” value (barnyardgrass; 250 g ai/ha, scale 0 to 100) was 30. The “Plant response rating, Barnyardgrass” value (barnyardgrass; 500 g ai/ha, scale 0 to 100) was 50, the “Plant response rating, Barnyardgrass” value (barnyardgrass; 1000 g ai/ha, scale 0 to 100) was 75 and the “Morningglory plant response rating” value (morningglory; [6]) was 0. For the same compound, the “Morningglory plant response rating” value (morningglory; [7]) was 0, the “Plant response rating, Morningglory” value (morningglory; [8]) was 0 and the “Plant response rating, Morningglory” value (morningglory; 16 g ai/ha, scale 0 to 100) was 0.

`O=C1NCC(c2ccc(C(F)(F)F)c(F)c2)C1C(=O)Nc1cccc(F)c1F` (racemic) [Compound 247] was tested, and the “Foxtail, Giant plant response rating” value (foxtail, giant; [6]) was 95, the “Foxtail, Giant plant response rating” value (foxtail, giant; [7]) was 95 and the “Plant response rating, Foxtail, Giant” value (foxtail, giant; [8]) was 98. For the same compound, the “Plant response rating (scale of 0 to 100), Foxtail, Giant” value (foxtail, giant) was 100, the “Plant response rating, Pigweed” value (pigweed; [9]) was 0 and the “Plant response rating, Pigweed” value (pigweed; [1]) was 0. For the same compound, the “Plant response rating, Pigweed” value (pigweed; [11]) was 0, the “Plant response rating, Pigweed” value (pigweed; [10]) was 0 and the “Galium plant response rating” value (galium; [6]) was 90. The “Galium plant response rating” value (galium; [7]) was 90, the “Plant response rating, Galium” value (galium; [8]) was 90 and the “Plant response rating (scale of 0 to 100), Galium” value (galium) was 90. For the same compound, the “Plant response rating, Rice” value (rice; [12]) was 0, the “Plant response rating, Rice” value (rice; 500 g ai/ha, scale 0 to 100) was 0 and the “Plant response rating, Rice” value (rice; 1000 g ai/ha, scale 0 to 100) was 0. The “Plant response rating, Rice” value (rice; 2000 g ai/ha, scale 0 to 100) was 15, the “Plant response rating, Barnyardgrass” value (barnyardgrass; [12]) was 25 and the “Plant response rating, Barnyardgrass” value (barnyardgrass; 500 g ai/ha, scale 0 to 100) was 35. For the same compound, the “Plant response rating, Barnyardgrass” value (barnyardgrass; 1000 g ai/ha, scale 0 to 100) was 70, the “Plant response rating, Barnyardgrass” value (barnyardgrass; 2000 g ai/ha, scale 0 to 100) was 80 and the “Morningglory plant response rating” value (morningglory; [6]) was 0. The “Morningglory plant response rating” value (morningglory; [7]) was 0, the “Plant response rating, Morningglory” value (morningglory; [8]) was 5 and the “Plant response rating (scale of 0 to 100), Morningglory” value (morningglory) was 20.

`O=C1NCC(c2ccc(C(F)(F)F)nc2)C1C(=O)Nc1cccc(F)c1F` (racemic) [Compound 263] was tested, and the “Foxtail, Giant plant response rating” value (foxtail, giant; [6]) was 65, the “Foxtail, Giant plant response rating” value (foxtail, giant; [7]) was 95 and the “Plant response rating, Foxtail, Giant” value (foxtail, giant; [8]) was 98. The “Plant response rating (scale of 0 to 100), Foxtail, Giant” value (foxtail, giant) was 98, the “Plant response rating, Pigweed” value (pigweed; [1]) was 70 and the “Plant response rating, Pigweed” value (pigweed; [11]) was 60. The “Plant response rating, Pigweed” value (pigweed; [10]) was 100, the “Galium plant response rating” value (galium; [6]) was 70 and the “Galium plant response rating” value (galium; [7]) was 85. The “Plant response rating, Galium” value (galium; [8]) was 85, the “Plant response rating (scale of 0 to 100), Galium” value (galium) was 90 and the “Plant response rating, Rice” value (rice; [3]) was 0. The “Plant response rating, Rice” value (rice; [4]) was 0, the “Plant response rating, Rice” value (rice; [5]) was 0 and the “Plant response rating, Rice” value (rice; [12]) was 15. For the same compound, the “Plant response rating, Barnyardgrass” value (barnyardgrass; [3]) was 20, the “Plant response rating, Barnyardgrass” value (barnyardgrass; [4]) was 35 and the “Plant response rating, Barnyardgrass” value (barnyardgrass; [5]) was 45. For the same compound, the “Plant response rating, Barnyardgrass” value (barnyardgrass; [12]) was 80, the “Morningglory plant response rating” value (morningglory; [6]) was 0 and the “Morningglory plant response rating” value (morningglory; [7]) was 0. For the same compound, the “Plant response rating, Morningglory” value (morningglory; [8]) was 20 and the “Plant response rating (scale of 0 to 100), Morningglory” value (morningglory) was 10.
